Measured values taken from article PMC9061180 (RSC Advances, 2019).
Where two headings read alike, the source gives them in different places.

Columns and labels:
Format in all cases: cell-based
[1] = system: MIA (pancreatic carcinoma); assay: cells; conditions: read-out: GI50 MIA
HT29 (colon carcinoma) = assay: cells; conditions: read-out: GI50 HT29
U87 (glioblastoma) = assay: cells; conditions: read-out: GI50 U87
MCF-7 (breast carcinoma) = assay: cells; conditions: read-out: GI50 MCF-7
SJ-G2 (glioblastoma) = assay: cells; conditions: read-out: GI50 SJ-G2
[2] = system: Du145 (prostate carcinoma); assay: cells; conditions: read-out: GI50 Du145
[3] = system: SMA (spontaneous murine astrocytoma); assay: cells; conditions: read-out: GI50 SMA
BE2-C (neuroblastoma) = assay: cells; conditions: read-out: GI50 BE2-C
[4] = system: panel of eleven cancer cell lines and one normal cell line; assay: MTT cytotoxicity, panel of eleven cancer cell lines and one normal cell line; conditions: for activity in initial screen: 25 μM drug concentration; for levels of toxicity: against HT29, U87, A2780, MIA and SMA cell lines; for GI50: read-out: average GI50
H460 (lung carcinoma) = assay: cells; conditions: read-out: GI50 H460
MCF10A (normal breast) = assay: cells; conditions: read-out: GI50 MCF10A
A431 (skin carcinoma) = assay: cells; conditions: read-out: GI50 A431
[5] = system: A2780 (ovarian carcinoma); assay: cells; conditions: read-out: GI50 A2780
[6] = Table 5, normal breast cell line, 72 h exposure, MTT

Molecule | GI50 ([1]; 72 h) [µM] | GI50 (HT29 (colon carcinoma); Homo sapiens, HT-29, 72 h) [µM] | GI50 (U87 (glioblastoma); 72 h) [µM] | GI50 (MCF-7 (breast carcinoma); Homo sapiens, MCF7, 72 h) [µM] | GI50 (SJ-G2 (glioblastoma); SJ-G2, 72 h) [µM] | GI50 ([2]; Homo sapiens, DU-145, 72 h) [µM] | GI50 ([3]; Mus musculus, 72 h) [µM] | GI50 (BE2-C (neuroblastoma); Homo sapiens, BE(2)-C, 72 h) [µM] | GI50 (H460 (lung carcinoma); Homo sapiens, NCI-H460, 72 h) [µM] | GI50 (A431 (skin carcinoma); Homo sapiens, A-431, 72 h) [µM] | GI50 ([5]; Homo sapiens, A2780, 72 h) [µM] | activity in initial screen [4] | levels of toxicity [4] | GI50 [4] [µM] | GI50 (MCF10A (normal breast); Homo sapiens, MCF-10A, 72 h) [µM] | also measured
C#CC(=O)N(c1ccccc1)C(C(=O)NC1CCCCC1)c1ccccc1 (racemic) [Compound 12, (RS)-N-(2-(Cyclohexylamino)-2-oxo-1-phenylethyl)-N-phenylpropiolamide] | 0.25 ± 0.02 | 0.27 ± 0.01 | 0.19 ± 0.01 | 1.6 ± 0.29 | 3 ± 0.1 | 0.18 ± 0.01 | 0.25 | 0.5 ± 0.2 | 3.6 ± 0.6 | 1 ± 0.2 | 0.23 ± 0.02 | sufficiently promising activity | sub-micro molar | 1.16 | 2.9 ± 0.1 | 
C#CC(=O)N(c1ccc(OC)cc1)C(C(=O)NC1CCCCC1)c1ccccc1 (racemic) [Compound 19, (RS)-N-(2-(Cyclohexylamino)-2-oxo-1-phenylethyl)-N-(4-methoxyphenyl)propiolamide] | 0.2 ± 0.02 | 0.2 ± 0.02 | 0.22 | 1.2 ± 0.033 | 0.76 ± 0.57 | 0.2 ± 0.069 |  | 0.2 ± 0.0067 | 2.2 ± 0.2 | 0.59 ± 0.26 | 0.22 ± 0.017 |  |  |  | 3.3 ± 0.52 | 
C#CC(=O)N(c1ccccc1)C(C(=O)NC1CCCCC1)c1cccc(OC)c1OC (racemic) [Compound 20, (RS)-N-(2-(Cyclohexylamino)-1-(2,3-dimethoxyphenyl)-2-oxoethyl)-N-phenylpropiolamide] | 0.46 ± 0.1 | 0.47 ± 0.12 | 0.71 ± 0.064 | 1.8 ± 0.067 | 1.8 ± 0.088 | 0.66 ± 0.24 |  | 0.46 ± 0.038 | 2.3 ± 0.3 | 1.2 ± 0.41 | 0.49 ± 0.095 |  |  |  | 7.6 ± 1.8 | 
C#CC(=O)N(c1ccccc1)C(C(=O)NC1CCCCC1)c1ccc(OC)c(OC)c1 (racemic) [Compound 21, (RS)-N-(2-(Cyclohexylamino)-1-(3,4-dimethoxyphenyl)-2-oxoethyl)-N-phenylpropiolamide] | 0.44 ± 0.14 | 0.53 ± 0.041 | 0.73 ± 0.13 | 1.5 ± 0.12 | 1.6 ± 0.18 | 0.61 ± 0.25 |  | 0.27 ± 0.029 | 2.8 ± 1.1 | 1 ± 0.29 | 0.54 ± 0.12 |  |  |  | 5.1 ± 0.4 | 
(RS)-N-(2-(Cyclohexylamino)-2-oxo-1-phenylethyl)-N-phenylbut-2-enamide [Compound 16d] |  |  |  |  |  |  |  |  |  |  |  | sufficiently promising activity |  |  |  | GI50 ([1]; Table 5, 72 h exposure, MTT): 4.5 ± 0.3 µM; GI50 (HT29 (colon carcinoma); Table 5, 72 h exposure, MTT): 15 ± 1 µM; GI50 (U87 (glioblastoma); Table 5, 72 h exposure, MTT): 16 µM; GI50 (MCF-7 (breast carcinoma); Table 5, 72 h exposure, MTT): 4.6 ± 1.3 µM; GI50 (SJ-G2 (glioblastoma); Table 5, 72 h exposure, MTT): 13 ± 1 µM; GI50 ([2]; Table 5, 72 h exposure, MTT): 8.6 ± 2.3 µM; GI50 ([3]; Table 5, 72 h exposure, MTT): 14 ± 2 µM; GI50 (BE2-C (neuroblastoma); Table 5, 72 h exposure, MTT): 2.6 ± 0.3 µM; GI50 ([4]; average over the cell lines of Table 5): 9.4 µM; GI50 (H460 (lung carcinoma); Table 5, 72 h exposure, MTT): 13 ± 0.3 µM; GI50 (MCF10A (normal breast); [6]): 7.5 ± 1.8 µM; GI50 (A431 (skin carcinoma); Table 5, 72 h exposure, MTT): 2.2 ± 0.1 µM; GI50 ([5]; Table 5, 72 h exposure, MTT): 12 µM
N-(2-cyclohexylamino)-1-(4-methoxyphenyl)-2-oxoethyl-N-(3,5-dimethoxyphenyl)propiolamide [Compound 1, reference compound] |  |  |  |  |  |  |  |  |  |  |  |  |  |  |  | GI50 ([1]; Table 5, 72 h exposure, MTT): 0.06 ± 0.03 µM; GI50 (HT29 (colon carcinoma); Table 5, 72 h exposure, MTT): 0.07 ± 0.01 µM; GI50 (U87 (glioblastoma); Table 5, 72 h exposure, MTT): 0.06 ± 0.02 µM; GI50 (MCF-7 (breast carcinoma); Table 5, 72 h exposure, MTT): 1.7 ± 0.17 µM; GI50 (SJ-G2 (glioblastoma); Table 5, 72 h exposure, MTT): 1.7 ± 0.26 µM; GI50 ([2]; Table 5, 72 h exposure, MTT): 0.11 ± 0.05 µM; GI50 (BE2-C (neuroblastoma); Table 5, 72 h exposure, MTT): 0.03 ± 0.01 µM; GI50 ([4]; across the cancer cell lines evaluated): ≤ 1 µM; GI50 (H460 (lung carcinoma); Table 5, 72 h exposure, MTT): 1.4 ± 0.6 µM; GI50 (MCF10A (normal breast); [6]): 0.29 ± 0.03 µM; GI50 (A431 (skin carcinoma); Table 5, 72 h exposure, MTT): 0.46 ± 0.15 µM; GI50 ([5]; Table 5, 72 h exposure, MTT): 0.58 ± 0.51 µM

More lines, main results first:

GI50 ([1]; 72 h) [µM] | GI50 (HT29 (colon carcinoma); Homo sapiens, HT-29, 72 h) [µM] | GI50 (U87 (glioblastoma); 72 h) [µM] | GI50 (MCF-7 (breast carcinoma); Homo sapiens, MCF7, 72 h) [µM] | GI50 (SJ-G2 (glioblastoma); SJ-G2, 72 h) [µM] | GI50 ([2]; Homo sapiens, DU-145, 72 h) [µM] | GI50 ([3]; Mus musculus, 72 h) [µM] | GI50 (BE2-C (neuroblastoma); Homo sapiens, BE(2)-C, 72 h) [µM] | GI50 (H460 (lung carcinoma); Homo sapiens, NCI-H460, 72 h) [µM] | GI50 (A431 (skin carcinoma); Homo sapiens, A-431, 72 h) [µM] | GI50 ([5]; Homo sapiens, A2780, 72 h) [µM] | Molecule | activity in initial screen [4] | levels of toxicity [4] | GI50 [4] [µM] | GI50 (MCF10A (normal breast); Homo sapiens, MCF-10A, 72 h) [µM] | also measured
5.9 ± 0.1 | 5.9 ± 0.2 | 12 ± 1 | 8 ± 2 | 11 ± 1 | 4.8 ± 0.4 | 10 ± 0.3 | 6.9 ± 0.6 | 6 ± 0.5 | 4.3 ± 0.3 | 6.5 ± 0.2 | O=C(NC1CCCCC1)C(c1ccccc1)N(C(=O)CC(F)(F)F)c1ccccc1 (racemic) [Compound 16g, (RS)-N-(2-(Cyclohexylamino)-2-oxo-1-phenylethyl)-3,3,3-trifluoro-N-phenylpropanamide] | sufficiently promising activity |  | 7.2 | 5.1 ± 0.5 | 
0.15 ± 0.009 | 0.17 ± 0.003 | 0.13 ± 0.017 | 1.7 ± 0.2 | 2.5 ± 0.1 | 1 ± 0.01 | 0.16 | 1.4 ± 0.3 | 2 ± 0.5 | 0.97 ± 0.2 | 0.1 ± 0.034 | C#CC(=O)N(c1ccccc1)C(C(=O)NCc1ccccc1)c1ccccc1 (racemic) [Compound 17a, (RS)-N-(2-(Benzylamino)-2-oxo-1-phenylethyl)-N-phenylpropiolamide] | sufficiently promising activity | sub-micro molar | 0.97 | 1.4 ± 0.4 | 
8.5 ± 0.9 | > 50 | > 50 | > 50 | 15 ± 4 | > 50 | > 50 | 25 ± 9 | 21 | 13 ± 1 | 16 | CC(=O)N(c1ccccc1)C(C(=O)NCc1ccccc1)c1ccccc1 (racemic) [Compound 17e, (RS)-N-Benzyl-2-phenyl-2-(N-phenylacetamido)acetamide] | sufficiently promising activity |  |  | 15 ± 1 | 
0.5 ± 0.1 | 0.47 ± 0.09 | 0.27 ± 0.03 | 2.7 ± 0.13 | 3 ± 0.2 | 0.32 ± 0.04 | 0.48 ± 0.06 | 1.8 ± 0.4 | 3 ± 0.4 | 2.1 ± 0.3 | 0.33 ± 0.11 | C#CC(=O)N(c1ccccc1)C(C(=O)NCC(=O)OCC)c1ccccc1 (racemic) [Compound 18a, (RS)-Ethyl (2-phenyl-2-(N-phenylpropiolamido)acetyl)glycinate] | sufficiently promising activity | sub-micro molar | 1.8 | 6.6 ± 1 | 
